Key:
Type in all cases: biochemical
JAK3 = molecular target: T1, JAK3 (Homo sapiens, UniProt P52333); assay: JAK3 kinase assay (HTRF, inhibition of phosphorylation of a synthetic peptide); conditions: catalytic domain, His-tag; 2 μM ATP (Km); read-out: JAK3 kinase inhibitory activity (EC50)
T1 construct: All four purified enzymes contain only the catalytic domain; His (N); purchased Carna Biosciences, Inc; host or cells: baculovirus expression system
Method: (§1) JAK1, JAK2, JAK3 and TYK2 Kinase Assays:
(§2) Human baculovirus-expressed JAK1, 2, 3 and TYK2 were purchased from Carna Biosciences, Inc. All four purified enzymes contain only the catalytic domain. JAK1 (aa 850-1154) and TYK2 (aa 871-1187) are expressed with an N-terminally fused GST-tag, and JAK2 and JAK3 with an N-terminally fused His-tag. Inhibition of phosphorylation of a synthetic peptide was measured in an HTRF-based assay using the TK substrate-Biotin from the CisbioHTRFKinEASE TK kit. First, 2 μl of TK solution (TK substrate-biotin in kinase buffer [1× enzymatic buffer from HTRFKinEASE TK kit, 1 mM DTT]) is added to a plate containing 1 μl prediluted compound (final assay concentration DMSO: 0.75%). Then, 5 μl kinase-ATP mix (prepared in kinase buffer) is added to the wells and the plates are incubated at RT for 20-30 min. For all four kinases a concentration of ATP that corresponded to the Km for ATP was used. The final concentrations of buffers, substrate, kinase and ATP were: JAK1: 50 mMHepes buffer pH 7.0, 0.01% BSA, 10 mM MgCl2, 1 mM DTT, 7 μM ATP, 50 nMSEB, 1 μM TK Substrate-Biotin and 5 ng JAK1; JAK2: 50 mM Hepes buffer pH 7.0, 0.01% BSA, 5 mM MgCl2, 1 mM DTT, 4 μM ATP, 1 μM TK Substrate-Biotin and 0.1 ng JAK2; JAK3: 50 mMHepes buffer pH 7.0, 0.01% BSA, 5 mM MgCl2, 1 mM DTT, 2 μM ATP, 1 μM TK Substrate-Biotin and 0.3 ng JAK3; TYK2: 50 mMHepes buffer pH 7.0, 0.01% BSA, 5 mM MgCl2, 1 mM DTT, 13 μM ATP, 50 nMSEB, 1 μM TK Substrate-Biotin and 0.8 ng TYK2. Thereafter, the kinase reaction is stopped by adding 4 μl detection mix (final concentrations: 50 mM Hepes buffer pH 7.0, 0.01% BSA, 0.8 M KF, 20 mM EDTA, 42 nM Streptavidin-XL665 and 1:400 STKAbCryptate) and the plates are incubated overnight in the dark. The HTRF signal is read using an Envision plate reader.

JAK2 = molecular target: T2, JAK2 (Homo sapiens, UniProt O60674); assay: JAK2 kinase assay (HTRF, inhibition of phosphorylation of a synthetic peptide); conditions: catalytic domain, His-tag; 4 μM ATP (Km); read-out: JAK2 kinase inhibitory activity (EC50)
T2 construct: All four purified enzymes contain only the catalytic domain; His (N); purchased Carna Biosciences, Inc; host or cells: baculovirus expression system
T2 sequence (O60674 849-1124 limits assumed): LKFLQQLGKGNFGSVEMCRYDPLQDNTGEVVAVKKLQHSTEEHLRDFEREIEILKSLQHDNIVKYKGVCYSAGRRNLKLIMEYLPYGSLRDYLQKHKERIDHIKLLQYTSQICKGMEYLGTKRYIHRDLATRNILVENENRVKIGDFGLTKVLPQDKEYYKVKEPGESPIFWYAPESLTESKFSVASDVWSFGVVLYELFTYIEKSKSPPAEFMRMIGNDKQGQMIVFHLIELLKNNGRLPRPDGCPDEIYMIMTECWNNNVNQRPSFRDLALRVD
Method: as §1, §2

JAK1 = molecular target: T3, JAK1 (Homo sapiens, UniProt P23458); assay: JAK1 kinase assay (HTRF, inhibition of phosphorylation of a synthetic peptide); conditions: catalytic domain aa 850-1154, GST-tag; 7 μM ATP (Km); read-out: JAK1 kinase inhibitory activity (EC50)
T3 construct: JAK1 (aa 850-1154) and TYK2 (aa 871-1187) are expressed with an N-terminally fused GST-tag; GST (N); purchased Carna Biosciences, Inc; host or cells: baculovirus expression system
T3 sequence (P23458 850-1154): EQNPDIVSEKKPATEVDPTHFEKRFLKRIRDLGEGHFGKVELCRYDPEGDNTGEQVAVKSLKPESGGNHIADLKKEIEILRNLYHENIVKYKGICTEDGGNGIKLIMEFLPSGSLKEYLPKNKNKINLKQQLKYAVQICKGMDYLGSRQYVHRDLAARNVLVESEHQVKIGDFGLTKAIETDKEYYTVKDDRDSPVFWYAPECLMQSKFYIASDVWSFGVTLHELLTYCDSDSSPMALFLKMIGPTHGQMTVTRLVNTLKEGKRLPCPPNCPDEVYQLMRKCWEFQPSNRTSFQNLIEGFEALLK
Method: as §1, §2

T1 sequence (P52333 822-1111 limits assumed): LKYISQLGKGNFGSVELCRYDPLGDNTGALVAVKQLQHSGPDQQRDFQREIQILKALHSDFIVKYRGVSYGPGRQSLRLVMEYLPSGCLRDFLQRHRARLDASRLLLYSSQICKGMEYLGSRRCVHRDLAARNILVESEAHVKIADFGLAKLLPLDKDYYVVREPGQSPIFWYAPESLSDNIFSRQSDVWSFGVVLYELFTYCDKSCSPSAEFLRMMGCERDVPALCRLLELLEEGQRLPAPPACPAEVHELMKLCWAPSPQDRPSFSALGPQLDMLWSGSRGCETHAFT

Compound | EC50 (JAK3) [nM] | EC50 (JAK2) [nM] | EC50 (JAK1) [nM]
O=C(CN1C(=O)CSC1=O)N1CCN(c2ncnc3[nH]ccc23)CC2(CC2)C1 [Example 79, 3-[2-oxo-2-[5-(7H-pyrrolo[2,3-d]pyrimidin-4-yl)-5,8-diazaspiro[2.6]nonan-8-yl]ethyl]thiazolidine-2,4-dione] | < 100 | < 100 | < 100
CN1CC(=O)N(CC(=O)N2CCN(c3ncnc4[nH]ccc34)CC3(CC3)C2)C1=O [Example 80, 1-methyl-3-[2-oxo-2-[5-(7H-pyrrolo[2,3-d]pyrimidin-4-yl)-5,8-diazaspiro[2.6]nonan-8-yl]ethyl]imidazolidine-2,4-dione] | 100 to 1000 | < 100 | 100 to 1000
O=C(CN1CCOC1=O)N1CCN(c2ncnc3[nH]ccc23)CC2(CC2)C1 [Example 81, 3-[2-oxo-2-[5-(7H-pyrrolo[2,3-d]pyrimidin-4-yl)-5,8-diazaspiro[2.6]nonan-8-yl]ethyl]oxazolidin-2-one] | 100 to 1000 | 100 to 1000 | 100 to 1000
CN1CCN(CC(=O)N2CCN(c3ncnc4[nH]ccc34)CC3(CC3)C2)C1=O [Example 82, 1-methyl-3-[2-oxo-2-[5-(7H-pyrrolo[2,3-d]pyrimidin-4-yl)-5,8-diazaspiro[2.6]nonan-8-yl]ethyl]imidazolidin-2-one] | 100 to 1000 | 100 to 1000 | 100 to 1000
O=C1CCC(=O)N1CC(=O)N1CCCN(c2ncnc3[nH]ccc23)CC12CC2 [Example 84, 1-[2-oxo-2-[5-(7H-pyrrolo[2,3-d]pyrimidin-4-yl)-5,9-diazaspiro[2.6]nonan-9-yl]ethyl]pyrrolidine-2,5-dione] | 100 to 1000 | 100 to 1000 | 100 to 1000
O=C(Cc1cnc[nH]1)N1CCN(c2ncnc3[nH]ccc23)CC2(CC2)C1 [Example 89, 2-(1H-imidazol-5-yl)-1-[5-(7H-pyrrolo[2,3-d]pyrimidin-4-yl)-5,8-diazaspiro[2.6]nonan-8-yl]ethanone] | 100 to 1000 | 100 to 1000 | 100 to 1000
Cc1ccc(S(=O)(=O)N2CCN(c3ncnc4[nH]ccc34)CC3(CC3)C2)cc1 [Example 96, 4-[8-(p-tolylsulfonyl)-5,8-diazaspiro[2.6]nonan-5-yl]-7H-pyrrolo[2,3-d]pyrimidine] | > 1000 | 100 to 1000 | 100 to 1000
Cc1oncc1C(=O)N1CCN(c2ncnc3[nH]ccc23)CC2(CC2)C1 [Example 108, (5-methylisoxazol-4-yl)-[5-(7H-pyrrolo[2,3-d]pyrimidin-4-yl)-5,8-diazaspiro[2.6]nonan-8-yl]methanone] | 100 to 1000 | 100 to 1000 | 100 to 1000
Cc1ccccc1C(=O)N1CCN(c2ncnc3[nH]ccc23)CC2(CC2)C1 [Example 109, o-tolyl-[5-(7H-pyrrolo[2,3-d]pyrimidin-4-yl)-5,8-diazaspiro[2.6]nonan-8-yl]methanone] | > 1000 | 100 to 1000 | > 1000
O=C(c1ccccc1F)N1CCN(c2ncnc3[nH]ccc23)CC2(CC2)C1 [Example 111, (2-fluorophenyl)-[5-(7H-pyrrolo[2,3-d]pyrimidin-4-yl)-5,8-diazaspiro[2.6]nonan-8-yl]methanone] | > 1000 | < 100 | 100 to 1000
O=C(c1ccc(F)cc1)N1CCCN(c2ncnc3[nH]ccc23)CC12CC2 [Example 114, (4-fluorophenyl)-[5-(7H-pyrrolo[2,3-d]pyrimidin-4-yl)-5,9-diazaspiro[2.6]nonan-9-yl]methanone] | 100 to 1000 | < 100 | 100 to 1000
CCCC1=NOC(C(=O)N2CCCN(c3ncnc4[nH]ccc34)CC23CC3)C1 (centres unmarked) [Example 124, (3-propyl-4,5-dihydroisoxazol-5-yl)-[5-(7H-pyrrolo[2,3-d]pyrimidin-4-yl)-5,9-diazaspiro[2.6]nonan-9-yl]methanone] | 100 to 1000 | 100 to 1000 | 100 to 1000
O=C(Cc1ccc(Cl)cc1)N1CCCN(c2ncnc3[nH]ccc23)CC12CC2 [Example 126, 2-(4-chlorophenyl)-1-[5-(7H-pyrrolo[2,3-d]pyrimidin-4-yl)-5,9-diazaspiro[2.6]nonan-9-yl]ethanone] | 100 to 1000 | < 100 | 100 to 1000
O=C(c1cccnc1)N1CCN(c2ncnc3[nH]ccc23)CC2(CC2)C1 [Example 127, 3-pyridyl-[5-(7H-pyrrolo[2,3-d]pyrimidin-4-yl)-5,8-diazaspiro[2.6]nonan-8-yl]methanone] | > 1000 | 100 to 1000 | 100 to 1000

Continued, values first:

EC50 (JAK3) [nM] | EC50 (JAK2) [nM] | EC50 (JAK1) [nM] | Compound
100 to 1000 | 100 to 1000 | 100 to 1000 | CN1CCN(CC(=O)N2CCCN(c3ncnc4[nH]ccc34)CC23CC3)C1=O [Example 83, 1-methyl-3-[2-oxo-2-[5-(7H-pyrrolo[2,3-d]pyrimidin-4-yl)-5,9-diazaspiro[2.6]nonan-9-yl]ethyl]imidazolidin-2-one]
100 to 1000 | 100 to 1000 | 100 to 1000 | O=C1CSC(=O)N1CC(=O)N1CCCN(c2ncnc3[nH]ccc23)CC12CC2 [Example 85, 3-[2-oxo-2-[5-(7H-pyrrolo[2,3-d]pyrimidin-4-yl)-5,9-diazaspiro[2.6]nonan-9-yl]ethyl]thiazolidine-2,4-dione]
> 1000 | 100 to 1000 | > 1000 | O=C1OCCN1CC(=O)N1CCCN(c2ncnc3[nH]ccc23)CC12CC2 [Example 86, 3-[2-oxo-2-[5-(7H-pyrrolo[2,3-d]pyrimidin-4-yl)-5,9-diazaspiro[2.6]nonan-9-yl]ethyl]oxazolidin-2-one]
100 to 1000 | 100 to 1000 | 100 to 1000 | O=C(Cc1cscn1)N1CCN(c2ncnc3[nH]ccc23)CC2(CC2)C1 [Example 88, 1-[5-(7H-pyrrolo[2,3-d]pyrimidin-4-yl)-5,8-diazaspiro[2.6]nonan-8-yl]-2-thiazol-4-yl-ethanone]
> 1000 | 100 to 1000 | 100 to 1000 | Cc1ccccc1C(=O)N1CCCN(c2ncnc3[nH]ccc23)CC12CC2 [Example 110, o-tolyl-[5-(7H-pyrrolo[2,3-d]pyrimidin-4-yl)-5,9-diazaspiro[2.6]nonan-9-yl]methanone]
100 to 1000 | < 100 | 100 to 1000 | O=C(c1ccccc1F)N1CCCN(c2ncnc3[nH]ccc23)CC12CC2 [Example 112, (2-fluorophenyl)-[5-(7H-pyrrolo[2,3-d]pyrimidin-4-yl)-5,9-diazaspiro[2.6]nonan-9-yl]methanone]
100 to 1000 | 100 to 1000 | 100 to 1000 | O=C(c1ccc(F)cc1)N1CCN(c2ncnc3[nH]ccc23)CC2(CC2)C1 [Example 113, (4-fluorophenyl)-[5-(7H-pyrrolo[2,3-d]pyrimidin-4-yl)-5,8-diazaspiro[2.6]nonan-8-yl]methanone]
 | 100 to 1000 | 100 to 1000 | N#Cc1ccc(/C=C/C(=O)N2CCN(c3ncnc4[nH]ccc34)CC3(CC3)C2)cc1 [Example 117, 4-[(E)-3-oxo-3-[5-(7H-pyrrolo[2,3-d]pyrimidin-4-yl)-5,8-diazaspiro[2.6]nonan-8-yl]prop-1-enyl]benzonitrile]
100 to 1000 | < 100 | 100 to 1000 | N#Cc1cccc(OCC(=O)N2CCN(c3ncnc4[nH]ccc34)CC3(CC3)C2)c1 [Example 118, 3-[2-oxo-2-[5-(7H-pyrrolo[2,3-d]pyrimidin-4-yl)-5,8-diazaspiro[2.6]nonan-8-yl]ethoxy]benzonitrile]
< 100 | 100 to 1000 | 100 to 1000 | O=C(c1cnon1)N1CCCN(c2ncnc3[nH]ccc23)CC12CC2 [Example 121, 1,2,5-oxadiazol-3-yl-[5-(7H-pyrrolo[2,3-d]pyrimidin-4-yl)-5,9-diazaspiro[2.6]nonan-9-yl]methanone]
100 to 1000 | < 100 | < 100 | Cc1cc(C(=O)N2CCCN(c3ncnc4[nH]ccc34)CC23CC3)on1 [Example 122, (3-methylisoxazol-5-yl)-[5-(7H-pyrrolo[2,3-d]pyrimidin-4-yl)-5,9-diazaspiro[2.6]nonan-9-yl]methanone]
